Results reported in US10221185B2, “Crystal form of substituted aminopyran derivativek” (Sichuan Haisco Pharmaceutical Co., Ltd., priority 2015, dated 2019).

Assays:
Type in all cases: physicochemical
[1] = Stability of crystal forms of Compound A kept dry at room temperature; details: Kept dry at room temperature for 14 d
[2] = Chemical stability of Crystal form IV of Compound A (influencing factors: high temperature, light exposure, high humidity)
Excerpt: A sample was investigated under the conditions and sampling time points shown in Table 4 below for influencing factors, and the results are shown in Table 5 below.

[3] = Slurry competition experiments of crystal forms of Compound A at room temperature
Excerpt: 2. Room temperature competition experiment between Crystal form I and Crystal forms II, III, IV of Compound A, examining the stability of the crystal forms in solvents such as water, ethanol, and water:ethanol (1:1) at room temperature, see Table 2 for details.

[4] = High humidity (92.5% RH), unsealed, 10 d
[5] = High humidity (92.5% RH), unsealed, 60 d
[6] = High temperature, unsealed, 40° C., 10 d
[7] = High temperature, unsealed, 40° C., 60 d
[8] = High temperature, unsealed, 60° C., 10 d
[9] = High temperature, unsealed, 60° C., 60 d

With CS(=O)(=O)n1cc2c(n1)CN([C@@H]1C[C@H](N)[C@@H](c3cc(F)ccc3F)O[C@@H]1C(F)(F)F)C2 [Crystal form II, (2R,3S,5R,6S)-2-(2,5-difluorophenyl)-5-(2-(methylsulfonyl)pyrrolo[3,4-c]pyrazol-5(2H,4H,6H)-yl)-6-(trifluoromethyl)tetrahydro-2H-pyran-3-amine] the “Crystal form after transformation” value [1] was “Crystal form II” and the “Stability of crystal form (conclusion in words)” value [1] was “good stability”.
With CS(=O)(=O)n1cc2c(n1)CN([C@@H]1C[C@H](N)[C@@H](c3cc(F)ccc3F)O[C@@H]1C(F)(F)F)C2 [Crystal form III, (2R,3S,5R,6S)-2-(2,5-difluorophenyl)-5-(2-(methylsulfonyl)pyrrolo[3,4-c]pyrazol-5(2H,4H,6H)-yl)-6-(trifluoromethyl)tetrahydro-2H-pyran-3-amine] the “Crystal form after transformation” value [1] was “Crystal form III” and the “Stability of crystal form (conclusion in words)” value [1] was “good stability”.
For CS(=O)(=O)n1cc2c(n1)CN([C@@H]1C[C@H](N)[C@@H](c3cc(F)ccc3F)O[C@@H]1C(F)(F)F)C2 [Crystal form IV of Compound A, (2R,3S,5R,6S)-2-(2,5-difluorophenyl)-5-(2-(methylsulfonyl)-pyrrolo[3,4]pyrazol-5(2H,4H,6H)-yl)-6-(trifluoromethyl)tetrahydro-2H-pyran-3-amine], the Appearance ([2]; 0 d) was “Off-white”, the Moisture ([2]; 0 d) was 0.19% and the “Purity of Compound A” value ([2]; 0 d) was 99.67%. The Appearance [2, 4] was “Light yellow”, the Moisture [2, 4] was 0.27% and the “Purity of Compound A” value [2, 4] was 99.57%. For the same compound, the Appearance [2, 5] was “Light yellow”, the Moisture [2, 5] was 0.20% and the “Purity of Compound A” value [2, 5] was 99.28%. The Appearance [2, 6] was “Light yellow”, the Moisture [2, 6] was 0.25% and the “Purity of Compound A” value [2, 6] was 99.54%. For the same compound, the Appearance [2, 7] was “Light yellow”, the Moisture [2, 7] was 0.18% and the “Purity of Compound A” value [2, 7] was 99.43%. The Appearance [2, 8] was “Light yellow”, the Moisture [2, 8] was 0.36% and the “Purity of Compound A” value [2, 8] was 99.48%. The Appearance [2, 9] was “Light yellow”, the Moisture [2, 9] was 0.15% and the “Purity of Compound A” value [2, 9] was 99.15%. The Appearance ([2]; Light exposure, unsealed, 10 d) was “Off-white”, the Moisture ([2]; Light exposure, unsealed, 10 d) was 0.32% and the “Purity of Compound A” value ([2]; Light exposure, unsealed, 10 d) was 99.51%. The Appearance ([2]; Light exposure, unsealed, 60 d) was “Off-white”, the Moisture ([2]; Light exposure, unsealed, 60 d) was 0.16% and the “Purity of Compound A” value ([2]; Light exposure, unsealed, 60 d) was 99.43%. The “Relative stability of crystal forms (conclusion in words)” value [3] was “the most stable crystal form at room temperature”, the “Crystal form after transformation” value [1] was “Crystal form IV” and the “Stability of crystal form (conclusion in words)” value [1] was “good stability”.
